Results taken from US12371454B2, “Cyclic peptide compound having Kras inhibitory action” (priority 2019, dated 2025).
Starred links: 1 amine or outer side, 2 acyl side, 3 side chain; linkers in the order of their positions; H or OH if unused. Positions of bridges follow the written chain, without caps; N, C: chain ends. Non-standard residues stand in square brackets, D forms with d. Residues, ends and D or L forms follow the SMILES beside them. *: point of attachment. hPhe(3,5-F2-4-CF3) = N[C@@H](CCc1cc(F)c(C(F)(F)F)c(F)c1)C(=O)O; hPhe(3-Cl-4-CF3) = N[C@@H](CCc1ccc(C(F)(F)F)c(Cl)c1)C(=O)O; hPhe(3-F,4-CF3) = N[C@@H](CCc1ccc(C(F)(F)F)c(F)c1)C(=O)O; NMePhe(4-CF3) = CN[C@@H](Cc1ccc(C(F)(F)F)cc1)C(=O)O; 3Oxa8azabicyclo(3.2.1)octane = C1CC2COCC1N2*; NMePhe(4-Me) = CN[C@@H](Cc1ccc(C)cc1)C(=O)O; NMedβ3hAla = C[C@H](CC(=O)[*:2])N(C)[*:1]; NMeNva(5,5-F2) = CN[C@@H](CCC(F)F)C(=O)O; NMeGly(cPent) = CN[C@H](C(=O)O)C1CCCC1; NMeCha = CN[C@@H](CC1CCCCC1)C(=O)O; cisHyp = O=C(O)[C@@H]1C[C@H](O)CN1; Hyp = O=C(O)[C@@H]1C[C@@H](O)CN1; NEtLeu = CCN[C@@H](CC(C)C)C(=O)O; NMeCba = CN[C@@H](CC1CCC1)C(=O)O; NMeChg = CN[C@H](C(=O)O)C1CCCCC1; NMeI = CC[C@H](C)[C@H](NC)C(=O)O; NMeT = CN[C@H](C(=O)O)[C@@H](C)O; NMeD = CN[C@@H](CC(=O)O)C(=O)O; NMeL = CN[C@@H](CC(C)C)C(=O)O; NMePra = C#CC[C@H](NC)C(=O)O; NMeV = CN[C@H](C(=O)O)C(C)C; d(β3hA) = C[C@@H](N)CC(=O)O; NMeS = CN[C@@H](CO)C(=O)O; NMeA = CN[C@@H](C)C(=O)O; Piperidide = C1CCN(*)CC1; Pyrrolidide = C1CCN(*)C1; Ac5c = NC1(C(=O)O)CCCC1; Aze = O=C(O)[C@@H]1CCN1; Isopentyl = CC(C)CC*; Sar = CNCC(=O)O

Each compound was assayed on Human pancreatic cancer cell line AsPC-1 (assay: Measurement of AsPC-1 cell growth inhibition (AsPC-1 CGI)). Settings: 96 h.
Assay type: cell-based
Outline: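 AsPC-1 cells in 15% FBS RPMI-1640 were exposed to test compound for 96 hours at 37° C, with CellTiter-Glo as endpoint.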

Structure (SMILES)	IC50 [µM]
CC[C@H](C)[C@@H]1NC(=O)[C@H](CC(C)C)N(C)C(=O)C[C@@H](C(=O)N2CCCC2)NC(=O)[C@H]([C@@H](C)CC)N(C)C(=O)C2(CCCC2)NC(=O)[C@@H]2CCCN2C(=O)[C@H](CCc2ccc(C(F)(F)F)c(Cl)c2)NC(=O)CN(C)C(=O)[C@H](CC2CCCCC2)N(C)C(=O)[C@@H]2CCN2C(=O)[C@H](C)N(C)C1=O [Compound 453] ([NMeL]I[NMeA][Aze][NMeCha][Sar][hPhe(3-Cl-4-CF3)]P[Ac5c][NMeI]D-Pyrrolidide; lactam N-11)	0.05 to 0.1
CC[C@H](C)[C@@H]1NC(=O)[C@H](CC2CCC2)N(C)C(=O)C[C@@H](C)NC(=O)[C@H](C(C)C)N(C)C(=O)C2(CCCC2)NC(=O)[C@@H]2CCCN2C(=O)[C@H](CCc2ccc(C(F)(F)F)c(Cl)c2)NC(=O)CN(C)C(=O)[C@H](CC2CCCCC2)N(C)C(=O)[C@@H]2CCN2C(=O)[C@H](C)N(C)C1=O [Compound 455] (cyclo([Ac5c][NMeV][d(β3hA)][NMeCba]I[NMeA][Aze][NMeCha][Sar][hPhe(3-Cl-4-CF3)]P))	0.1 to 0.5
CC[C@H](C)[C@@H]1NC(=O)[C@H](CC(C)C)N(C)C(=O)C[C@@H](C(=O)N2C3CCC2COC3)N(C)C(=O)[C@H]([C@@H](C)CC)N(C)C(=O)C2(CCCC2)NC(=O)[C@@H]2CCCN2C(=O)[C@H](CCc2ccc(C(F)(F)F)c(Cl)c2)NC(=O)CN(C)C(=O)[C@H](CC2CCCCC2)N(C)C(=O)[C@@H]2CCN2C(=O)[C@H](C)N(C)C1=O [Compound 469] ([NMeL]I[NMeA][Aze][NMeCha][Sar][hPhe(3-Cl-4-CF3)]P[Ac5c][NMeI][NMeD]-{3Oxa8azabicyclo(3.2.1)octane}; lactam N-11)	0.02 to 0.05
CC[C@H](C)[C@@H]1NC(=O)[C@H](CC(C)C)N(C)C(=O)C[C@@H](C(=O)N2CCCCC2)N(C)C(=O)[C@H](C(C)C)N(C)C(=O)C2(CCCC2)NC(=O)[C@@H]2CCCN2C(=O)[C@H](CCc2ccc(C(F)(F)F)c(Cl)c2)NC(=O)CN(C)C(=O)[C@H](COCCC(C)C)N(C)C(=O)[C@@H]2CCN2C(=O)[C@H](C)N(C)C1=O [Compound 470] ([NMeL]I[NMeA][Aze][NMeS](Isopentyl)[Sar][hPhe(3-Cl-4-CF3)]P[Ac5c][NMeV][NMeD]-Piperidide; lactam N-11)	0.1 to 0.5
CC[C@H](C)[C@@H]1NC(=O)[C@H](CC(C)C)N(C)C(=O)C[C@@H](C(=O)N2CCCCC2)N(C)C(=O)[C@H](C(C)C)N(C)C(=O)C2(CCCC2)NC(=O)[C@@H]2CCCN2C(=O)[C@H](CCc2ccc(C(F)(F)F)c(Cl)c2)NC(=O)CN(C)C(=O)[C@H](CC2CCCCC2)N(C)C(=O)[C@@H]2CCN2C(=O)[C@H](C)N(C)C1=O [Compound 476] ([NMeL]I[NMeA][Aze][NMeCha][Sar][hPhe(3-Cl-4-CF3)]P[Ac5c][NMeV][NMeD]-Piperidide; lactam N-11)	0.1 to 0.5
CCO[C@@H]1C[C@H]2C(=O)NC3(CCCC3)C(=O)N(C)[C@@H](C3CCCCC3)C(=O)N(C)[C@H](C)CC(=O)N(C)[C@@H](CC(C)C)C(=O)N[C@@H]([C@@H](C)CC)C(=O)N(C)[C@@H](C)C(=O)N3CC[C@H]3C(=O)N(C)[C@@H](Cc3ccc(C(F)(F)F)cc3)C(=O)N(C)CC(=O)N[C@@H](CCc3cc(F)c(C(F)(F)F)c(F)c3)C(=O)N2C1 [Compound 486] (cyclo([Ac5c][NMeChg][NMedβ3hAla][NMeL]I[NMeA][Aze][NMePhe(4-CF3)][Sar][hPhe(3,5-F2-4-CF3)][Hyp](Et)))	0.05 to 0.1
CC[C@H](C)[C@@H]1NC(=O)[C@H](CC(C)C)N(C)C(=O)C[C@@H](C)NC(=O)[C@H](C(C)C)N(C)C(=O)C2(CCCC2)NC(=O)[C@@H]2CCCN2C(=O)[C@H](CCc2ccc(C(F)(F)F)c(Cl)c2)NC(=O)CN(C)C(=O)[C@H](CC2CCCCC2)N(C)C(=O)[C@@H]2CCN2C(=O)[C@H](C)N(C)C1=O [Compound 488] (cyclo([Ac5c][NMeV][d(β3hA)][NMeL]I[NMeA][Aze][NMeCha][Sar][hPhe(3-Cl-4-CF3)]P))	0.1 to 0.5
CC[C@H](C)[C@@H]1NC(=O)[C@H](CC(C)C)N(C)C(=O)C[C@@H](C(=O)N2CCCCC2)N(C)C(=O)[C@H](C(C)C)N(C)C(=O)C2(CCCC2)NC(=O)[C@@H]2CCCN2C(=O)[C@H](CCc2ccc(C(F)(F)F)c(Cl)c2)NC(=O)CN(C)C(=O)[C@H](CC2CCCCC2)N(C)C(=O)[C@@H]2CCN2C(=O)[C@H]([C@@H](C)O)N(C)C1=O [Compound 496] ([NMeL]I[NMeT][Aze][NMeCha][Sar][hPhe(3-Cl-4-CF3)]P[Ac5c][NMeV][NMeD]-Piperidide; lactam N-11)	0.1 to 0.5
CO[C@H](C)[C@@H]1NC(=O)[C@H](CC(C)C)N(C)C(=O)C[C@@H](C(=O)N2CCCCC2)N(C)C(=O)[C@H](C(C)C)N(C)C(=O)C2(CCCC2)NC(=O)[C@@H]2CCCN2C(=O)[C@H](CCc2ccc(C(F)(F)F)c(Cl)c2)NC(=O)CN(C)C(=O)[C@H](CC2CCCCC2)N(C)C(=O)[C@@H]2CCN2C(=O)[C@H](C)N(C)C1=O [Compound 497] ([NMeL]T(Me)[NMeA][Aze][NMeCha][Sar][hPhe(3-Cl-4-CF3)]P[Ac5c][NMeV][NMeD]-Piperidide; lactam N-11)	0.1 to 0.5
CC[C@H](C)[C@@H]1NC(=O)[C@H](CC(C)C)N(C)C(=O)C[C@@H](C(=O)N2CCCCC2)N(C)C(=O)[C@H](C2CCCCC2)N(C)C(=O)C2(CCCC2)NC(=O)[C@H](CCC(F)F)N(C)C(=O)[C@H](CCc2ccc(C(F)(F)F)c(Cl)c2)NC(=O)CN(C)C(=O)[C@H](CC2CCCCC2)N(C)C(=O)CN(C)C(=O)CN(C)C1=O [Compound 523] ([NMeL]I[Sar][Sar][NMeCha][Sar][hPhe(3-Cl-4-CF3)][NMeNva(5,5-F2)][Ac5c][NMeChg][NMeD]-Piperidide; lactam N-11)	0.1 to 0.5
CC[C@H](C)[C@@H]1NC(=O)[C@H](CC(C)C)N(CC)C(=O)C[C@@H](C)NC(=O)[C@H](C2CCCC2)N(C)C(=O)C2(CCCC2)NC(=O)[C@@H]2CCCN2C(=O)[C@H](CCc2ccc(C(F)(F)F)c(Cl)c2)NC(=O)CN(C)C(=O)[C@H](Cc2ccc(C)cc2)N(C)C(=O)[C@@H]2CCN2C(=O)[C@H](C)N(C)C1=O [Compound 531] (cyclo([Ac5c][NMeGly(cPent)][d(β3hA)][NEtLeu]I[NMeA][Aze][NMePhe(4-Me)][Sar][hPhe(3-Cl-4-CF3)]P))	0.02 to 0.05
CC[C@H](C)[C@@H]1NC(=O)[C@H](CC(C)C)N(C)C(=O)C[C@@H](C(=O)N2CCCCC2)N(C)C(=O)[C@H](CC(C)C)N(C)C(=O)C2(CCCC2)NC(=O)[C@@H]2C[C@H](O)CN2C(=O)[C@H](CCc2ccc(C(F)(F)F)c(F)c2)NC(=O)CN(C)C(=O)[C@H](CC2CCCCC2)N(C)C(=O)CN(C)C(=O)CN(C)C1=O [Compound 544, (3S,9S,18S,21S,25S,28S,34S,36S)-9-(cyclohexylmethyl)-3-[2-[3-fluoro-4-(trifluoromethyl)phenyl]ethyl]-36-hydroxy-21,28-diisobutyl-7,10,13,16,22,26,29-heptamethyl-18-[(1S)-1-methylpropyl]-25-(piperidine-1-carbonyl)spiro[1,4,7,10,13,16,19,22,26,29,32-undecazabicyclo[32.3.0]heptatriacontane-31,1′-cyclopentane]-2,5,8,11,14,17,20,23,27,30,33-undecone] ([NMeL]I[Sar][Sar][NMeCha][Sar][hPhe(3-F,4-CF3)][cisHyp][Ac5c][NMeL][NMeD]-Piperidide; lactam N-11)	0.1 to 0.5
CC[C@H](C)[C@@H]1NC(=O)[C@H](CC(C)C)N(C)C(=O)C[C@@H](C(=O)N2CCCCC2)N(C)C(=O)[C@H](C2CCCCC2)N(C)C(=O)C2(CCCC2)NC(=O)[C@@H]2CCCN2C(=O)[C@H](CCc2ccc(C(F)(F)F)c(Cl)c2)NC(=O)CN(C)C(=O)[C@H](CC2CCCCC2)N(C)C(=O)CN(C)C(=O)CN(C)C1=O [Compound 558] ([NMeL]I[Sar][Sar][NMeCha][Sar][hPhe(3-Cl-4-CF3)]P[Ac5c][NMeChg][NMeD]-Piperidide; lactam N-11)	0.02 to 0.05
C#CC[C@H]1C(=O)N[C@@H]([C@@H](C)CC)C(=O)N(C)[C@@H](C)C(=O)N2CC[C@H]2C(=O)N(C)[C@@H](CC2CCCCC2)C(=O)N(C)CC(=O)N[C@@H](CCc2ccc(C(F)(F)F)c(Cl)c2)C(=O)N2CCC[C@H]2C(=O)NC2(CCCC2)C(=O)N(C)[C@@H](C(C)C)C(=O)N(C)[C@H](C(=O)N2CCCCC2)CC(=O)N1C [Compound 559] ([NMePra]I[NMeA][Aze][NMeCha][Sar][hPhe(3-Cl-4-CF3)]P[Ac5c][NMeV][NMeD]-Piperidide; lactam N-11)	0.1 to 0.5
CC[C@H](C)[C@@H]1NC(=O)[C@H](CC(C)C)N(C)C(=O)C[C@@H](C(=O)N2CCCCC2)N(C)C(=O)[C@H](C2CCCC2)N(C)C(=O)C2(CCCC2)NC(=O)[C@@H]2CCCN2C(=O)[C@H](CCc2ccc(C(F)(F)F)c(F)c2)NC(=O)CN(C)C(=O)[C@H](CC2CCCCC2)N(C)C(=O)[C@@H]2CCN2C(=O)[C@H](C)N(C)C1=O [Compound 563] ([NMeL]I[NMeA][Aze][NMeCha][Sar][hPhe(3-F,4-CF3)]P[Ac5c][NMeGly(cPent)][NMeD]-Piperidide; lactam N-11)	0.02 to 0.05
CC[C@H](C)[C@@H]1NC(=O)[C@H](CC(C)C)N(C)C(=O)C[C@@H](C(=O)N(C)C)NC(=O)[C@H]([C@@H](C)CC)N(C)C(=O)C2(CCCC2)NC(=O)[C@@H]2CCCN2C(=O)[C@H](CCc2ccc(C(F)(F)F)c(Cl)c2)NC(=O)CN(C)C(=O)[C@H](CC2CCCCC2)N(C)C(=O)[C@@H]2CCN2C(=O)[C@H](C)N(C)C1=O [Compound 568] ([NMeL]I[NMeA][Aze][NMeCha][Sar][hPhe(3-Cl-4-CF3)]P[Ac5c][NMeI]D-NMe2; lactam N-11)	0.1 to 0.5
CC[C@H](C)[C@@H]1NC(=O)[C@H](CC2CCCCC2)N(C)C(=O)C[C@@H](C(=O)N2CCCCC2)N(C)C(=O)[C@H](C(C)C)N(C)C(=O)C2(CCCC2)NC(=O)[C@@H]2CCCN2C(=O)[C@H](CCc2ccc(C(F)(F)F)c(Cl)c2)NC(=O)CN(C)C(=O)[C@H](CC2CCCCC2)N(C)C(=O)[C@@H]2CCN2C(=O)[C@H](C)N(C)C1=O [Compound 572] ([NMeCha]I[NMeA][Aze][NMeCha][Sar][hPhe(3-Cl-4-CF3)]P[Ac5c][NMeV][NMeD]-Piperidide; lactam N-11)	0.1 to 0.5
